Measured values taken from the NIST ThermoML archive (doi:10.1021/je060271a).
Numbers after ± are expanded uncertainties.

Conditions: 323.15 K, Liquid, Vibrating tube method

CCCCCCC(=O)OCC(COC(=O)CCCCCC)(COC(=O)CCCCCC)COC(=O)CCCCCC [pentaerythritol tetraheptanoate]
Conditions	mass density [kg/m3]
25142 kPa	971.7 ± 1.2
25168 kPa	971.8 ± 1.2
25198 kPa	971.9 ± 1.2
25224 kPa	971.9 ± 1.2
25249 kPa	971.7 ± 1.2
25275 kPa	971.9 ± 1.2
25306 kPa	971.9 ± 1.2
25330 kPa	971.9 ± 1.2
25356 kPa	971.9 ± 1.2
25439 kPa	971.9 ± 1.2
25465 kPa	972 ± 1.2
25496 kPa	972 ± 1.2
25522 kPa	972.1 ± 1.2
25549 kPa	972 ± 1.2
25575 kPa	972 ± 1.2
25607 kPa	972.1 ± 1.2
25663 kPa	972.2 ± 1.2
25691 kPa	972.2 ± 1.2
25743 kPa	972.1 ± 1.2
25775 kPa	972.2 ± 1.2
25801 kPa	972.2 ± 1.2
26029 kPa	972.3 ± 1.2
26061 kPa	972.3 ± 1.2
26121 kPa	972.4 ± 1.2
26148 kPa	972.5 ± 1.2
26175 kPa	972.3 ± 1.2
26208 kPa	972.5 ± 1.2
26235 kPa	972.4 ± 1.2
26263 kPa	972.6 ± 1.2
26296 kPa	972.3 ± 1.2
26325 kPa	972.4 ± 1.2
26352 kPa	972.5 ± 1.2
26386 kPa	972.5 ± 1.2
26413 kPa	972.5 ± 1.2
26441 kPa	972.4 ± 1.2
26475 kPa	972.6 ± 1.2
26503 kPa	972.6 ± 1.2
26531 kPa	972.6 ± 1.2
26559 kPa	972.6 ± 1.2
26594 kPa	972.6 ± 1.2
26622 kPa	972.6 ± 1.2
26658 kPa	972.7 ± 1.2
26682 kPa	972.6 ± 1.2
26717 kPa	972.7 ± 1.2
26745 kPa	972.7 ± 1.2
26901 kPa	972.8 ± 1.2
26930 kPa	972.9 ± 1.2
26959 kPa	972.9 ± 1.2
26995 kPa	972.9 ± 1.2
27304 kPa	973.1 ± 1.2
27340 kPa	973.1 ± 1.2
27371 kPa	973 ± 1.2
27401 kPa	973.1 ± 1.2
27437 kPa	973.1 ± 1.2
27468 kPa	973.1 ± 1.2
27498 kPa	973 ± 1.2
27534 kPa	973.2 ± 1.2
27632 kPa	973.3 ± 1.2
27663 kPa	973.3 ± 1.2
27694 kPa	973.3 ± 1.2
27794 kPa	973.3 ± 1.2
27926 kPa	973.5 ± 1.2
27963 kPa	973.5 ± 1.2
27996 kPa	973.5 ± 1.2
28065 kPa	973.4 ± 1.2
28096 kPa	973.6 ± 1.2
28128 kPa	973.5 ± 1.2
28160 kPa	973.5 ± 1.2
28199 kPa	973.6 ± 1.2
28231 kPa	973.6 ± 1.2
28270 kPa	973.6 ± 1.2
28302 kPa	973.6 ± 1.2
28334 kPa	973.7 ± 1.2
28471 kPa	973.7 ± 1.2
28511 kPa	973.9 ± 1.2
28544 kPa	973.6 ± 1.2
28577 kPa	973.8 ± 1.2
28617 kPa	973.8 ± 1.2
28650 kPa	973.8 ± 1.2
28689 kPa	973.9 ± 1.2
28723 kPa	973.8 ± 1.2
28864 kPa	973.9 ± 1.2
29014 kPa	974 ± 1.2
29565 kPa	974.4 ± 1.2
29607 kPa	974.4 ± 1.2
29642 kPa	974.4 ± 1.2
29686 kPa	974.4 ± 1.2
29724 kPa	974.5 ± 1.2
29761 kPa	974.5 ± 1.2
29798 kPa	974.5 ± 1.2
29834 kPa	974.6 ± 1.2
29878 kPa	974.6 ± 1.2
29915 kPa	974.6 ± 1.2
29959 kPa	974.6 ± 1.2
29995 kPa	974.7 ± 1.2
30032 kPa	974.6 ± 1.2
30076 kPa	974.8 ± 1.2
30114 kPa	974.7 ± 1.2
30151 kPa	974.7 ± 1.2
30237 kPa	974.8 ± 1.2
30274 kPa	974.7 ± 1.2
30312 kPa	974.8 ± 1.2
30358 kPa	974.7 ± 1.2
30396 kPa	974.8 ± 1.2
30434 kPa	974.9 ± 1.2
32025 kPa	975.7 ± 1.2
32076 kPa	975.7 ± 1.2
32119 kPa	975.8 ± 1.2
32170 kPa	975.9 ± 1.2
32213 kPa	975.8 ± 1.2
32256 kPa	975.9 ± 1.2
32308 kPa	976 ± 1.2
